Results published in BigSolDB 2.1.

Structure (SMILES) | solubility (mole fraction) (in n-octanol, 290.15 K) | solubility (mole fraction) (in n-octanol, 298.15 K) | solubility (mole fraction) (in n-octanol, 303.15 K) | solubility (mole fraction) (in n-octanol, 310.15 K) | solubility (mole fraction) (in n-octanol, 315.15 K) | solubility (mole fraction) (in water, 293.15 K) | solubility (mole fraction) (in water, 298.15 K) | solubility (mole fraction) (in water, 303.15 K) | solubility (mole fraction) (in water, 310.15 K) | solubility (mole fraction) (in water, 315.15 K) | solubility (mole fraction) (in n-octanol, 293.15 K) | solubility (mole fraction) (in water, 295.15 K)
Nc1ccc(S(=O)(=O)Nc2cc(Cl)ccc2Cl)cc1 | 0.000347 | 0.000412 | 0.000529 | 0.000667 | 0.00089 | 6.12e-07 | 7.25e-07 | 8.98e-07 | 1.03e-06 | 1.24e-06 |  | 
Nc1ccc(S(=O)(=O)Nc2ccc(Cl)c(Cl)c2)cc1 | 0.000317 | 0.000356 | 0.000422 | 0.000501 | 0.000617 | 1.67e-07 | 2.05e-07 | 2.48e-07 | 3.26e-07 | 3.89e-07 |  | 
Nc1ccc(S(=O)(=O)Nc2ccc(Cl)cc2)c(Cl)c1 |  | 0.00248 | 0.00287 | 0.00349 | 0.00391 | 4.05e-07 | 4.72e-07 | 5.62e-07 | 6.86e-07 | 8.12e-07 | 0.0021 | 
Nc1ccc(S(=O)(=O)Nc2ccc(Cl)cc2)cc1 | 0.00126 | 0.00132 | 0.00145 | 0.00153 | 0.00167 | 9.2e-07 | 1.19e-06 | 1.51e-06 | 2.02e-06 | 2.84e-06 |  | 
Nc1ccc(S(=O)(=O)Nc2cc(Cl)c(Cl)cc2Cl)cc1 |  | 0.00109 | 0.00118 | 0.00146 | 0.00179 | 2.22e-07 | 2.51e-07 | 2.74e-07 | 3.07e-07 | 3.33e-07 | 0.00097 | 
Cc1cc(Cl)ccc1NS(=O)(=O)c1ccc(N)cc1 |  | 0.00489 | 0.00556 | 0.00675 | 0.00786 | 1.25e-06 | 1.61e-06 | 2.11e-06 | 3.08e-06 | 3.74e-06 | 0.00426 | 
Cc1ccc(NS(=O)(=O)c2ccc(N)cc2)cc1Cl |  | 0.000552 | 0.00064 | 0.000801 | 0.000897 | 1.26e-07 | 1.53e-07 | 1.79e-07 | 2.25e-07 | 2.56e-07 | 0.000491 | 
Cc1ccc(NS(=O)(=O)c2ccc(N)cc2)c(Cl)c1 |  | 0.00158 | 0.0018 | 0.00221 | 0.00259 |  | 7.65e-07 | 9.36e-07 | 1.18e-06 | 1.45e-06 | 0.00133 | 7.06e-07
Cc1ccc(Cl)cc1NS(=O)(=O)c1ccc(N)cc1 |  | 0.00188 | 0.00221 | 0.00273 | 0.00323 |  | 7.72e-07 | 1.03e-06 | 1.51e-06 | 2.12e-06 | 0.00153 | 6.16e-07

Other lines, results leading:

solubility (mole fraction) (in n-octanol, 290.15 K) | solubility (mole fraction) (in n-octanol, 298.15 K) | solubility (mole fraction) (in n-octanol, 303.15 K) | solubility (mole fraction) (in n-octanol, 310.15 K) | solubility (mole fraction) (in n-octanol, 315.15 K) | solubility (mole fraction) (in water, 293.15 K) | solubility (mole fraction) (in water, 298.15 K) | solubility (mole fraction) (in water, 303.15 K) | solubility (mole fraction) (in water, 310.15 K) | solubility (mole fraction) (in water, 315.15 K) | solubility (mole fraction) (in n-octanol, 293.15 K) | solubility (mole fraction) (in water, 295.15 K) | Structure (SMILES)
 | 0.00356 | 0.00393 | 0.00465 | 0.00519 | 4.79e-07 | 6.71e-07 | 9.04e-07 | 1.35e-06 | 1.68e-06 | 0.00319 |  | Cc1cc(N)ccc1S(=O)(=O)Nc1ccc(Cl)cc1
 | 0.000115 | 0.000143 | 0.000192 | 0.000242 | 1.39e-07 | 1.57e-07 | 1.74e-07 | 2.07e-07 | 2.32e-07 | 8.97e-05 |  | Cc1cc(N)ccc1S(=O)(=O)Nc1ccccc1Cl
 | 7.4e-05 | 9.37e-05 | 0.000128 | 0.000164 | 1.05e-07 | 1.19e-07 | 1.35e-07 | 1.55e-07 | 1.75e-07 | 5.85e-05 |  | Nc1ccc(S(=O)(=O)Nc2ccccc2Cl)c(Cl)c1
 | 0.000198 | 0.000247 | 0.000345 | 0.000449 | 4.41e-07 | 5.17e-07 | 5.79e-07 | 8.02e-07 | 9.35e-07 | 0.000152 |  | Cc1cc(N)ccc1S(=O)(=O)Nc1ccccc1[N+](=O)[O-]
